Holding throughout (type): biochemical
One test deals with T1, PPK2C^pa (Pseudomonas aeruginosa, UniProt Q9HYF1).
T1 construct: gene PA3455
T1 sequence (Q9HYF1 1-496): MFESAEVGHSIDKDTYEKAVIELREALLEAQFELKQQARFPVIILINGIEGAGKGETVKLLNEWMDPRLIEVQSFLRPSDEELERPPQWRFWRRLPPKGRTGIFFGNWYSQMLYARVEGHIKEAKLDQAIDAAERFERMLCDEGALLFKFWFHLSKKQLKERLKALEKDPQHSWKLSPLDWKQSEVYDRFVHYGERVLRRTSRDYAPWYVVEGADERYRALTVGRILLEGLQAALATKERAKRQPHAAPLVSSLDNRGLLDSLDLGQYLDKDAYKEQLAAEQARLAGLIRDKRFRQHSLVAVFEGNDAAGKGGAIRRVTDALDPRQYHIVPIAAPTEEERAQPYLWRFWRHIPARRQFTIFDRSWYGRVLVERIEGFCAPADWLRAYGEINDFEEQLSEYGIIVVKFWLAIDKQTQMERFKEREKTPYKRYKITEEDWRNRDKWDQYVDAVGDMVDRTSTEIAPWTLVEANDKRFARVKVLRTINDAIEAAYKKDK
Description: ATP formation from ADP and polyPn. The following applies: 5 uM ADP, 5 uM polyP (polyP6 best), 20 mM MgSO4, 50 mM Tris-HCl pH 8.0, 30 °C, 2 h.

Test [1] concerns the target T2, PPK1 (Streptomyces noursei, UniProt A0A2N8P4S7).
T2 construct: gene ppk; gene amplified from the WG608 genome
Description: ATP formation from ADP and polyPn. The following applies: 5 uM ADP, 5 uM polyP (polyP6 best), 20 mM MgSO4, 50 mM Tris-HCl pH 8.0, 30 °C, 2 h.

In the next test the target is PPK2B^cg (Corynebacterium glutamicum, UniProt Q8NM65). The test can be described thus: ATP formation from ADP and polyPn. The note with it: 5 uM ADP, 5 uM polyP (polyP6 best), 20 mM MgSO4, 50 mM Tris-HCl pH 8.0, 30 °C, 2 h.
In test [2] the target is T2, PPK1. Description: change of ATP concentration, reverse reaction. The following applies: 0-10 uM ATP, 5 uM ADP, 5 uM polyP6, 20 mM MgSO4, 50 mM Tris-HCl pH 8.0, 30 °C, 2 h.

Regarding `Nc1ncnc2c1ncn2[C@@H]1O[C@H](COP(=O)(O)OP(=O)(O)O)[C@@H](O)[C@H]1O` [ADP], the “ATP formation from ADP and polyPn” value at PPK2C^pa was “The activities of the three PPKs were compared in vitro using ADP, and different polyPs”; at PPK1 [1], “The activities of the three PPKs were compared in vitro using ADP, and different polyPs”; on PPK2B^cg, “PPK2B^cg exhibited the highest ATP production ability”.
On to `Nc1ncnc2c1ncn2[C@@H]1O[C@H](COP(=O)(O)OP(=O)(O)OP(=O)(O)O)[C@@H](O)[C@H]1O` [ATP], for which the “change of ATP concentration, reverse reaction” value on PPK1 [2] is “PPK1 catalyzes polyP6 polymerization and ATP is degraded into ADP”.

The values are drawn from publication PMC10012588, “Engineering Streptomyces albulus to enhance ε-poly-L-lysine production by introducing a polyphosphate kinase-mediated ATP regeneration system” (Microbial Cell Factories, 2023).
